Data from US20250375418A1, “1-(NAPHTHALEN-2-YL)-3-AZABICYCLO[3.1.0]HEXANE FOR TREATING MAJOR DEPRESSIVE DISORDER” (OTSUKA PHARMACEUTICAL CO., LTD., priority 2022, published 2025).
Values joined by “and” are separate entries in the source; they are usually repeats but may differ in a detail not shown here. Equal values may be shown once. Where a name gives a salt, the structure may show the parent alone. Read-outs that look alike come from different tables or passages of the source.

Experiments:
[1] = Plasma pharmacokinetics of a CTN HCl formulation, 164.4 mg dose (Table 11); format: in vivo, human; conditions: for Tmax: median
Experimental: The plasma pharmacokinetics from a CTN HCl formulation having a dose of 164.4 mg can be as in Table 11.

[2] = Plasma pharmacokinetics of CTN HCl formulation, 164.4 mg or 328.8 mg, First Day and Fifth Day (Table 12); format: in vivo, human; conditions: for AUC ratio / Cmax ratio: Fifth Day/First Day; for Tmax: n = 8, median; for Cmax / AUC(0-t) / concentration at 1 h / concentration at 12 h / concentration at 16 h / AUC(0-inf): n = 8, mean; for AUC(0-t): read-out: AUC0-24 h; for concentration at 1 h: read-out: C1 hr; for concentration at 12 h: read-out: C12 hr; for concentration at 16 h: read-out: C16 hr
Experimental: The plasma pharmacokinetics from a CTN HCl formulation having a dose of 164.4 mg or 328.8 mg can be as in Table 12.

[3] = target: serotonin reuptake transporter (SERT) (Homo sapiens, UniProt P31645); assay: Reuptake transporter inhibition, SERT; format: biochemical
Description: (§1) and is an unbalanced triple reuptake inhibitor with the most potency towards the norepinephrine reuptake transporter (NET), one-sixth as much towards the dopamine reuptake transporter (DAT), and one-fourteenth as much towards the serotonin reuptake transporter (SERT).

[4] = Safety and tolerability (adverse events); conditions: in vivo
[5] = target: norepinephrine reuptake transporter (NET) (Homo sapiens, UniProt P23975); assay: Reuptake transporter inhibition, NET; format: biochemical; conditions: relative among NET, DAT, SERT
Description: as §1

[6] = target: dopamine reuptake transporter (DAT) (Homo sapiens, UniProt Q01959); assay: Reuptake transporter inhibition, DAT; format: biochemical
Description: as §1

adult subjects with MDD [7] = assay: Phase 2 trial, centanafadine XR as adjunct to escitalopram in MDD (Example 2); format: in vivo, human
Description: Inclusion and Exclusion criteria are the same as Example 1. In addition, subjects who are taking escitalopram or citalopram at the time of screening, have been exposed to escitalopram or citalopram in their current MDE, or have reported an inadequate response to an adequate dose/duration of escitalopram or citalopram in the past, are also excluded.
All subjects receive either escitalopram monotherapy, centanafadine QD XR capsules+escitalopram (combination therapy), or matching placebo, for 6 weeks.
For day 1, the escitalopram tablet is a 10 mg QD dose. At Week 1, dosing increases to 20 mg QD for the remainder of subject participation in the trial.
Subjects assigned to receive escitalopram monotherapy receive a 10 mg QD dose at Day 1. At Week 1, dosing increases to 20 mg QD for the remainder of subject participation in the trial. Dose reductions are not permitted.

adult subjects with MDD [8] = assay: Phase 2 trial, centanafadine XR monotherapy in MDD (Example 1); conditions: 328.8 mg once daily XR
[9] = Biopharmaceutics classification (solubility, permeability); format: physicochemical
Description: Described herein are methods of using centanafadine (CTN) or a pharmaceutically acceptable salt thereof for the treatment of central nervous system disorders. […] As used herein, CTN should be understood to refer to centanafadine, while pharmaceutically acceptable salts thereof are also considered in addition to or as one or more alternatives to CTN in every method, use, and formulation described herein, unless explicitly stated otherwise. Centanafadine [CAS 924012-43-1], also known chemically as (1R,5S)-1-(naphthalen-2-yl)-3-azabicyclo[3.1.0]hexane or (+)-1-(naphthalen-2-yl)-3-azabicyclo[3.1.0]hexane, has the following structure: […]

[10] = human, plasma, 164.4 mg, Fifth Day
[11] = human, plasma, 164.4 mg, First Day
[12] = human, plasma, 328.8 mg, First Day
[13] = human, plasma, oral, 164.4 mg, Fifth Day
[14] = human, plasma, oral, 164.4 mg, First Day
[15] = human, plasma, oral, 328.8 mg, Fifth Day
[16] = human, plasma, oral, 328.8 mg, First Day

Chain of dopamine reuptake transporter (DAT) (Q01959 whole entry, species assumed): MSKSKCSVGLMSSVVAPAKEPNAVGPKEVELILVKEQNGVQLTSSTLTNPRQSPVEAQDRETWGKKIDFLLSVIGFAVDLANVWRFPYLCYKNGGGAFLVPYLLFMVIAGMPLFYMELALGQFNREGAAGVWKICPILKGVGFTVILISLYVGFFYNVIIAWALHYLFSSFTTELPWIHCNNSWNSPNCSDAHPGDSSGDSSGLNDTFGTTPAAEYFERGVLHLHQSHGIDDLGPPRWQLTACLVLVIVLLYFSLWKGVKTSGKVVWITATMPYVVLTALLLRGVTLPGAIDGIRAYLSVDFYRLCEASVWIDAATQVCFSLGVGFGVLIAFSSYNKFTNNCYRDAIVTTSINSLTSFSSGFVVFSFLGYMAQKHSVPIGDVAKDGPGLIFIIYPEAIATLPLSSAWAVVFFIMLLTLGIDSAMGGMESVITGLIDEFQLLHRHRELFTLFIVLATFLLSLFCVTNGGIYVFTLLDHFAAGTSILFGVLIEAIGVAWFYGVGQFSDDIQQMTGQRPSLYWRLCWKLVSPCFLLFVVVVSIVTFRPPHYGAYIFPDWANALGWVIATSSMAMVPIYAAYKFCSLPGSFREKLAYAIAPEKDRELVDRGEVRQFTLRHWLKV
Chain of norepinephrine reuptake transporter (NET) (P23975 whole entry): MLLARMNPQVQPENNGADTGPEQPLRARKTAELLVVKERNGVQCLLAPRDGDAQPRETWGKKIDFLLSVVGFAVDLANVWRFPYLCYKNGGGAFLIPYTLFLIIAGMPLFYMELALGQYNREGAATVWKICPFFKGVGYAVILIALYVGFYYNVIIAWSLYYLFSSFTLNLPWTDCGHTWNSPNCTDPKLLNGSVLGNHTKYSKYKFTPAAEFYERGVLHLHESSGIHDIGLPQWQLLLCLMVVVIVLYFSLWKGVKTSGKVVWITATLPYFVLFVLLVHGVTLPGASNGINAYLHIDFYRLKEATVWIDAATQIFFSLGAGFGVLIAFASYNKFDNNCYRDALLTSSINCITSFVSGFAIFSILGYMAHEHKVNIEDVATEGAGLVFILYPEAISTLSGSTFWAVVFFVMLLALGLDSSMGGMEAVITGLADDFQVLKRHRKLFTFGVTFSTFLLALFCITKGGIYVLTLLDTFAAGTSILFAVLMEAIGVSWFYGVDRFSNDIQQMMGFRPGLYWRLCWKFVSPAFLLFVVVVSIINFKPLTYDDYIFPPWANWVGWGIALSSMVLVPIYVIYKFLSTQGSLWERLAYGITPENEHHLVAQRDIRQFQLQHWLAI
Chain of serotonin reuptake transporter (SERT) (P31645 whole entry, species assumed): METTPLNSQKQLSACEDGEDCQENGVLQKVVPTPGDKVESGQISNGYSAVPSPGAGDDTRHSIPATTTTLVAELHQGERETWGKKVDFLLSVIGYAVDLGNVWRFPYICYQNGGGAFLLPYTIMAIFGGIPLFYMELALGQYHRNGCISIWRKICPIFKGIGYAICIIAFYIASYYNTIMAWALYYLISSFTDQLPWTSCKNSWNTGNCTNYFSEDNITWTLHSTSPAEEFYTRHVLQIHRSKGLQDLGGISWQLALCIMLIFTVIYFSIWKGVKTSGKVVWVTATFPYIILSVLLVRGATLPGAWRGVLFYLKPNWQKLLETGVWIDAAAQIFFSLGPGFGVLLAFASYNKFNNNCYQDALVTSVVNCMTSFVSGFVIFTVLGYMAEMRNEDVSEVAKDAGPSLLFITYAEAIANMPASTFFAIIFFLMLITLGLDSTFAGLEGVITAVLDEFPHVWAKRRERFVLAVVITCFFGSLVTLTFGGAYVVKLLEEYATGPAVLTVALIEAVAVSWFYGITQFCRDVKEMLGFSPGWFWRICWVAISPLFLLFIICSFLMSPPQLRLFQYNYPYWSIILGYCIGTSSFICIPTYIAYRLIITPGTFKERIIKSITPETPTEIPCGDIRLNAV

Structure (SMILES): c1ccc2cc([C@]34CNC[C@H]3C4)ccc2c1 [Centanafadine HCl]
- AUC0-24 h [1]: 5290 ng·h/mL
- C1 hr [1]: 302 ng/mL and 321 ng/mL and 358 ng/mL
- C12 hr [1]: 186 ng/mL and 220 ng/mL and 289 ng/mL
- Cmax [1]: 618 ng/mL and 629 ng/mL
- Tmax ([1]; human, oral, read-out: tmax): 4 to 7.5 h
- AUC(0-inf) ([1]; human, oral, n = 11, read-out: AUC0-inf): 5000 to 8000 ng·h/mL
- AUC(0-t) ([1]; human, oral, read-out: AUC0-1 h): 150 to 500 ng·h/mL
- AUC(0-t) ([1]; human, oral, read-out: AUC0-24 h): 4500 to 7500 ng·h/mL
- Cmax ([1]; human, oral, read-out: Cmax): 500 to 700 ng/mL
- Tmax [1]: 4.5 h and 5 h
- AUC(0-inf) ([1]; n = 11): 6240 ng·h/mL and 7110 ng·h/mL
- AUC ratio ([2]; 164.4 mg): 0.98
- Cmax ratio ([2]; 164.4 mg): 1.13
- Tmax ([2]; 328.8 mg, Fifth Day): 5.00 h
- AUC ratio ([2]; 328.8 mg): 1.16
- Cmax ratio ([2]; 328.8 mg): 1.31
- Cmax [2, 10]: 709 ng/mL
- AUC(0-t) [2, 10]: 6650 ng·h/mL
- Cmax [2, 11]: 651 ng/mL
- AUC(0-t) [2, 11]: 6570 ng·h/mL
- AUC(0-t) ([2]; human, plasma, 328.8 mg, Fifth Day): 18400 ng·h/mL
- AUC(0-t) [2, 12]: 16000 ng·h/mL
- concentration at 1 h [2, 13]: 427 ng/mL
- concentration at 12 h [2, 13]: 276 ng/mL
- concentration at 16 h [2, 13]: 103 ng/mL
- Tmax ([2]; human, plasma, oral, 164.4 mg, Fifth Day, read-out: tmax): 5.5 h
- concentration at 1 h [2, 14]: 358 ng/mL
- concentration at 12 h [2, 14]: 289 ng/mL
- concentration at 16 h [2, 14]: 133 ng/mL
- Tmax ([2]; human, plasma, oral, 164.4 mg, First Day, read-out: tmax): 7 h
- Cmax [2, 15]: 2230 ng/mL
- concentration at 1 h [2, 15]: 718 ng/mL
- concentration at 12 h [2, 15]: 646 ng/mL
- concentration at 16 h [2, 15]: 211 ng/mL
- Cmax [2, 16]: 1940 ng/mL
- concentration at 1 h [2, 16]: 640 ng/mL
- concentration at 12 h [2, 16]: 750 ng/mL
- concentration at 16 h [2, 16]: 306 ng/mL
- Tmax ([2]; human, plasma, oral, 328.8 mg, First Day, read-out: tmax): 4 h
- AUC(0-inf) [2, 11]: 7110 ng·h/mL
- AUC(0-inf) [2, 12]: 16700 ng·h/mL

Structure (SMILES): c1ccc2cc([C@]34CNC[C@H]3C4)ccc2c1 [Centanafadine, (1R,5S)-1-(naphthalen-2-yl)-3-azabicyclo[3.1.0]hexane]
- potency towards SERT relative to NET [3]: one-fourteenth
- safety and tolerability, rate of adverse events (AEs) [4]: generally safe and well tolerated
- potency towards NET [5]: most potency
- potency towards DAT relative to NET [6]: one-sixth
- mean decrease of primary efficacy measures (MADRS Total score) (adult subjects with MDD [7]; 6 weeks combination therapy (centanafadine XR 328.8 mg + escitalopram 10-20 mg QD) vs escitalopram monotherapy): greater
- efficacy as adjunct therapy to SSRI (escitalopram) in patients with MDD (adult subjects with MDD [7]; centanafadine XR 328.8 mg + escitalopram, 6 weeks): effective as an adjunct therapy
- SF-36v2 general scores from baseline (adult subjects with MDD [8]; 6 weeks): Increased
- efficacy as monotherapy in patients with MDD (adult subjects with MDD [8]; 6 weeks): effective as monotherapy
- risk for depression (SF-36v2) (adult subjects with MDD [8]; 6 weeks): reduced
- CGI-C scores (adult subjects with MDD [8]; 6 weeks, vs placebo): significant reductions
- CGI-S scores from baseline (adult subjects with MDD [8]; 6 weeks, vs placebo): significant reductions
- PGI-C scores (adult subjects with MDD [8]; 6 weeks, vs placebo): significant reductions
- PGI-S scores from baseline (adult subjects with MDD [8]; 6 weeks, vs placebo): significant reductions
- primary efficacy measures (MADRS Total score) (adult subjects with MDD [8]; after 6-week double-blind treatment, vs placebo): significantly reduces
- BSC classification [9]: Class I
- solubility [9]: highly soluble
- permeability ([9]; not told): highly permeable
